The values that follow come from publication PMC6437697 (Journal of Medicinal Chemistry, 2019).

Holding throughout (test): KINOMEscan
Common to all, as to type: binding
What all share (conditions): read-out: % control activity remaining

The target of one assay is T1, RAF1 (Homo sapiens, UniProt P04049).
T1 construct: purchased Eurofins DiscoverX KINOMEscan

The next assay addresses T2, CDK3 (Homo sapiens, UniProt Q00526).
T2 construct: purchased Eurofins DiscoverX KINOMEscan

The target in a further assay is T3, CDK4-cyclinD1 (Homo sapiens, UniProt P11802).
T3 construct: purchased Eurofins DiscoverX KINOMEscan

The target in a further assay is T4, AURKB (Homo sapiens, UniProt Q96GD4).
T4 construct: purchased Eurofins DiscoverX KINOMEscan

The target of the next assay is T5, CDKL1 (Homo sapiens, UniProt Q00532).
T5 construct: purchased Eurofins DiscoverX KINOMEscan

A further assay addresses T6, BRSK2 (Homo sapiens, UniProt Q8IWQ3).
T6 construct: purchased Eurofins DiscoverX KINOMEscan
T6 sequence (Q8IWQ3 1-736): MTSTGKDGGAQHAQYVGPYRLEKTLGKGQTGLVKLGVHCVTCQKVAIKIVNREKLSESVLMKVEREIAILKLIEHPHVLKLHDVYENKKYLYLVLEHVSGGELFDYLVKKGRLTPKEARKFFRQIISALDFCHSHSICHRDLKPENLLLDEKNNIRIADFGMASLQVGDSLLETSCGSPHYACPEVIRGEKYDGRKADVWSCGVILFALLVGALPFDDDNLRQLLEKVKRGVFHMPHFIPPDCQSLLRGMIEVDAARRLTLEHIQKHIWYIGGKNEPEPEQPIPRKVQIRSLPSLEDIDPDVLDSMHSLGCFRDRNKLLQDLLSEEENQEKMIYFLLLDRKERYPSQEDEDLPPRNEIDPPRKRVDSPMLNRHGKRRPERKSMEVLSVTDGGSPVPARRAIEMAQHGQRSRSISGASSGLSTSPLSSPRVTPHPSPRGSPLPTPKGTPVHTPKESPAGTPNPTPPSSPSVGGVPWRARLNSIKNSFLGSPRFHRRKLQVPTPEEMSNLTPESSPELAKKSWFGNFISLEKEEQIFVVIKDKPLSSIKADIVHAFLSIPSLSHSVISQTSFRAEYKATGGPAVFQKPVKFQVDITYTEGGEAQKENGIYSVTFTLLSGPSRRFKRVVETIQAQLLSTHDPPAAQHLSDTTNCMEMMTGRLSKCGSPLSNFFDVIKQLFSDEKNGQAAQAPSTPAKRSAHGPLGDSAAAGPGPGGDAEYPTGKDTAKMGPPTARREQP

The target of a further assay is T7, SGK3 (Homo sapiens, UniProt Q96BR1).
T7 construct: purchased Eurofins DiscoverX KINOMEscan
T7 sequence (Q96BR1 1-496): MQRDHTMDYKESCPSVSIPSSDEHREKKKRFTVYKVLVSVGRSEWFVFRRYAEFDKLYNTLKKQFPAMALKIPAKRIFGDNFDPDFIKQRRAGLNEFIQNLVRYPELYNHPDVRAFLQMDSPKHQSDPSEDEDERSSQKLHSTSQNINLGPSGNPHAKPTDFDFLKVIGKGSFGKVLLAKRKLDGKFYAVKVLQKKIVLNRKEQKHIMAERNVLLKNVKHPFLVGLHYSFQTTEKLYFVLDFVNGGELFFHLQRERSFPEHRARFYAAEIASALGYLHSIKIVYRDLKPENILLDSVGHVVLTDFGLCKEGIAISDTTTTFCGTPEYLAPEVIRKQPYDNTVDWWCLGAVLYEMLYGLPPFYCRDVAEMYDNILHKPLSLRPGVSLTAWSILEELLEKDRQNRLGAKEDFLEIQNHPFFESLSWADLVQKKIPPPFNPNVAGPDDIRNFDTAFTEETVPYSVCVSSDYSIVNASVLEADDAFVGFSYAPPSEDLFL

Another assay concerns the target T8, CSNK1E (Homo sapiens, UniProt P49674).
T8 construct: purchased Eurofins DiscoverX KINOMEscan

The target in another assay is T9, ERK2 (Homo sapiens, UniProt P28482).
T9 construct: purchased Eurofins DiscoverX KINOMEscan

In a further assay the target is T10, SGK2 (Homo sapiens, UniProt Q9HBY8).
T10 construct: purchased Eurofins DiscoverX KINOMEscan
T10 sequence (Q9HBY8 1-367): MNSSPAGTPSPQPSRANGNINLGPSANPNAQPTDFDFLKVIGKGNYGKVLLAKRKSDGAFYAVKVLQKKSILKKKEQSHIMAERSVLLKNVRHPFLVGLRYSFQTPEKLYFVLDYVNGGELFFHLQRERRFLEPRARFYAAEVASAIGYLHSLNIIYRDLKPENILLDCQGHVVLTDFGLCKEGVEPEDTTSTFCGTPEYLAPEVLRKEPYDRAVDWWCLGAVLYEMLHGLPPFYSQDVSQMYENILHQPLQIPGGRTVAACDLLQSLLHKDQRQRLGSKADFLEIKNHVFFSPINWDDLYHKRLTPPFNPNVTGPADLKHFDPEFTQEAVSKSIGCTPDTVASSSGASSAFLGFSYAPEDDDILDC

For assay [1], the target named is T11, ABL1(H396P)-nonphosphorylated (Homo sapiens, UniProt P00519, H396P).
T11 construct: purchased Eurofins DiscoverX KINOMEscan

T1 sequence (P04049 whole entry): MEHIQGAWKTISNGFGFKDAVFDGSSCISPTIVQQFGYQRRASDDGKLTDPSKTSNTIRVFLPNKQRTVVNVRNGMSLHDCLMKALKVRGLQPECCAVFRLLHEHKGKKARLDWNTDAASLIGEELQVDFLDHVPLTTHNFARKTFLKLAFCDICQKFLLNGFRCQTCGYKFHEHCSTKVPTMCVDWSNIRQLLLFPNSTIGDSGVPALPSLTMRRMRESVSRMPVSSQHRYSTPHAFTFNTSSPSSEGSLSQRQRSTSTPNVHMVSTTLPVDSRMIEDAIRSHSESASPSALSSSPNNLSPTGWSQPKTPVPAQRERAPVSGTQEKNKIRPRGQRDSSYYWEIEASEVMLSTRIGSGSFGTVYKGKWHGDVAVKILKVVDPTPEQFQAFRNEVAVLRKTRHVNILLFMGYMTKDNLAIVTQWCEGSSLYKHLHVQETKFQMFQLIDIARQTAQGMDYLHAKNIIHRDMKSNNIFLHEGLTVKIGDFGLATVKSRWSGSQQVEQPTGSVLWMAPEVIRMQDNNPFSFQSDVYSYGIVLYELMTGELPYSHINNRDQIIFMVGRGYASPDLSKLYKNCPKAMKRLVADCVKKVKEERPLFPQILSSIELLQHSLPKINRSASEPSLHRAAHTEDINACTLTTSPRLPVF
T8 sequence (P49674 whole entry): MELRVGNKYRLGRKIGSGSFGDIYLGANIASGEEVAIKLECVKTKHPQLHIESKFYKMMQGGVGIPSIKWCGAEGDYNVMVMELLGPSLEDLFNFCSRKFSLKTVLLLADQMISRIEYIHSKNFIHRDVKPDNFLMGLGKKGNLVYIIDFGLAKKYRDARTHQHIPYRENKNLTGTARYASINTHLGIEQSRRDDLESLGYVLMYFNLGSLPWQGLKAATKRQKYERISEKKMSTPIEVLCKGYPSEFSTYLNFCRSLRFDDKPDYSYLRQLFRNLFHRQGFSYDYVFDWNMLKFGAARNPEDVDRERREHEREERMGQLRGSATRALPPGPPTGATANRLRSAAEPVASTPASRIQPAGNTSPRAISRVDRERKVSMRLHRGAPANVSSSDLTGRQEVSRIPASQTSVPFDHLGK
T2 sequence (Q00526 whole entry): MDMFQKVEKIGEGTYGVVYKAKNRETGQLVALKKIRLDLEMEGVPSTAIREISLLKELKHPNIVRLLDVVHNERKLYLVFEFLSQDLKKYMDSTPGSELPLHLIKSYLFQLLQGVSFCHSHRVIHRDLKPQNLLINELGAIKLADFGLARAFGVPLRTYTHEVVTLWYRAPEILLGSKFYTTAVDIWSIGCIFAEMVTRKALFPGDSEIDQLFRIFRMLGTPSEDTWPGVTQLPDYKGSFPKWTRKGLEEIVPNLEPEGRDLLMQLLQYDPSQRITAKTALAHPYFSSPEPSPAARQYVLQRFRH
T5 sequence (Q00532 whole entry): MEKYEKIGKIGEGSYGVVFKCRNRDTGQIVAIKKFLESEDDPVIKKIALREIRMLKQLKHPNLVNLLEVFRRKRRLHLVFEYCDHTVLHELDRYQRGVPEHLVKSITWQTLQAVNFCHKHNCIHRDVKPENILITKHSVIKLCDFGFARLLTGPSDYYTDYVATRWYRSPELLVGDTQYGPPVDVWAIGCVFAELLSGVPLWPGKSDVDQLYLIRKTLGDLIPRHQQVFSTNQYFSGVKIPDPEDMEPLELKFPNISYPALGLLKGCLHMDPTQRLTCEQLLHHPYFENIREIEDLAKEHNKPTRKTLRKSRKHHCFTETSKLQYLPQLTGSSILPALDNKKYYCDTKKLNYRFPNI
T4 sequence (Q96GD4 whole entry): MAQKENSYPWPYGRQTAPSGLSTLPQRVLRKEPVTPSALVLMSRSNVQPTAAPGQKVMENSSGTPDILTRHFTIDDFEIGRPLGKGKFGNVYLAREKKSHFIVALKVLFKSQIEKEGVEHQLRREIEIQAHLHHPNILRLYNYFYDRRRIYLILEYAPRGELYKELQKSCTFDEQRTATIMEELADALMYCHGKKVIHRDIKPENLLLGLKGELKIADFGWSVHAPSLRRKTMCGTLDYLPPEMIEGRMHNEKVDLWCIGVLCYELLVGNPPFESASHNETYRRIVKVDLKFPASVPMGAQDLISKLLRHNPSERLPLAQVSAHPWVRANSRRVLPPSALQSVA
T9 sequence (P28482 whole entry): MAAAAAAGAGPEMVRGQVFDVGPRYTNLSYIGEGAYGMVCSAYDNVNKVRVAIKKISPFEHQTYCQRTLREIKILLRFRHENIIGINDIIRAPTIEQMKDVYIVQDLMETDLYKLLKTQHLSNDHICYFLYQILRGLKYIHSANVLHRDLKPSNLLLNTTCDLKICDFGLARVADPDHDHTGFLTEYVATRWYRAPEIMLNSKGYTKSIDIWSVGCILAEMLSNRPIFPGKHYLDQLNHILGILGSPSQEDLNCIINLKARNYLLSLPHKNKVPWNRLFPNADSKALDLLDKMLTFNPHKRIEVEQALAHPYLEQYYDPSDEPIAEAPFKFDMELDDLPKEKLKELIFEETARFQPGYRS
T3 sequence (P11802 whole entry): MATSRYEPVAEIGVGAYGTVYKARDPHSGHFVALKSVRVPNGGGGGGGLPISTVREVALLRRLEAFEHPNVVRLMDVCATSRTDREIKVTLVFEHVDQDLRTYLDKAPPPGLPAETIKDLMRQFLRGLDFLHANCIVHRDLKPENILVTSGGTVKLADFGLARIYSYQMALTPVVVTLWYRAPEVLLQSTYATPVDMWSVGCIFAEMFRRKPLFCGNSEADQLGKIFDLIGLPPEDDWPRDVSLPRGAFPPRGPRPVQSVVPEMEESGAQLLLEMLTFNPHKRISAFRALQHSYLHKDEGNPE
T3 sequence (P24385 whole entry partner): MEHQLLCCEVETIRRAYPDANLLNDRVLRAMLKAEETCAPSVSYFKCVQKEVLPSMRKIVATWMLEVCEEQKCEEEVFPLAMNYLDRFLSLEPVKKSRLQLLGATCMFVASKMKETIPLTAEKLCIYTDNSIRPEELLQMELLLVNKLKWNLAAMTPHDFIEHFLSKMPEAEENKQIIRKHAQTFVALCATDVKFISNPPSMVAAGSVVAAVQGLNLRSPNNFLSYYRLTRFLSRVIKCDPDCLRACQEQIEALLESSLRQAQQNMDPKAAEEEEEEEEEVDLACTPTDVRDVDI

Take `Clc1cc(NCC2CC2)c2ncc(-c3ccc4[nH]ncc4c3)n2n1` [compound 2, 6-Chloro-N-(cyclopropylmethyl)-3-(1H-indazol-5-yl)imidazo[1,2-b]pyridazin-8-amine]: the remaining binding at 1 µM at RAF1 stood at 99%; on CDK3, 95%; on CDK4-cyclinD1 it was 88%; on AURKB it was 90%; on CDKL1, 74%; at BRSK2, 100%. In addition, the remaining binding at 1 µM at SGK3 was 91%; on CSNK1E, 71%; on ERK2, 92%; at SGK2, 89%; in assay [1] it was 74%.

On to `O=C(CN1CCOCC1)N[C@H]1CC[C@H](Nc2cc(Cl)nn3c(-c4ccc5[nH]ncc5c4)cnc23)CC1` [compound 26], for which the remaining binding at 1 µM at RAF1 worked out at 100%; on CDK3 it was 90%; at CDK4-cyclinD1, 93%; at AURKB, 55%; at CDKL1, 90%; on BRSK2, 98%. Moreover, the remaining binding at 1 µM on SGK3 worked out at 65%; at CSNK1E, 44%; at ERK2, 93%; on SGK2 it was 100%; in assay [1] it was 16%.

In the case of `CN1CCC(CNc2cc(Cl)nn3c(-c4cc5nc(Nc6ccccc6)[nH]c5cc4F)cnc23)CC1` [compound 31, 6-Chloro-3-(6-fluoro-2-(phenylamino)-1H-benzo[d]imidazol-5-yl)-N-((1-methylpiperidin-4-yl)methyl)imidazo[1,2-b]pyridazin-8-amine], the remaining binding at 1 µM on RAF1 is 100%; at CDK3 it was 97%; on CDK4-cyclinD1, 87%; on AURKB it was 83%; at CDKL1 it was 67%; at BRSK2, 84%. In addition, the remaining binding at 1 µM was determined as 93% at SGK3; 100% on CSNK1E; 99% on ERK2; 83% at SGK2; 42% in [1].
